Data as given in US9133207B2, “Tetrandrine derivatives with substituted 5-carbon, preparation method and use thereof” (Hangzhou Bensheng Pharmaceutical Co., Ltd., priority 2011, dated 2015).
In brackets after ≈: the same amount, converted by molar mass.

How the values were obtained:
[1] = test system: Huh7 (human liver cancer cell); assay: Solid tumor cell growth inhibition, MTT, 72 h (Example 7); format: cell-based; details: Homo sapiens; 72 h, MTT, Huh-7
Experimental: (§1) Human solid tumor cell lines: Hep-2 (laryngeal carcinoma), A549 (human lung cancer), CaES-17 (esophageal cancer cell), PC-3 (prostate cancer), CNE (nasopharyngeal carcinoma cell) and SK-OV-3 (ovarian cancer cell), all of which are purchased from China Center For Type Culture Collection; RKO (human colon adenocarcinoma cell), MGC 803 (human gastric cancer cell), MG63 (osteosarcoma), and U87 MG (malignant glioma cell), all of which are purchased from Fuxiang Bio-tech Co. Ltd., Shanghai, China; PANC-1 (pancreatic cancer), Huh? (human liver cancer cell), Becap37 (human breast cancer cell), and Hela (human cervical cancer cell), all of which are donated by Cancer Research Institute of Zhejiang University, China.
(§2) Reagents: the same as in Example 5.
(§3) Obtaining 4000 well-growing human solid tumor cells and inoculating them into wells of a 96-well cell culture plate. The culture medium is DMEM High Glucose cell culture medium containing 10% fetal bovine serum. The plate is placed in a carbon dioxide cell incubator (5% CO2) at 37° C. and incubated for 24 hours. After been added with tetrandrine derivatives of different concentration and mixing uniformly, the plate is placed in a carbon dioxide cell incubator (5% CO2) at 37° C. and incubated for 72 hours. Then the viable cell concentration is determined by the MTT method and the cell viability (%) after drug treatment is calculated. In this experiment, the cell viability of control group (not treated with any compound) is set as 100%.

[2] = test system: Becap37 (human breast cancer cell); assay: as above; format: cell-based; details: Homo sapiens; 72 h, MTT, Becap-37
Experimental: as §1, §2, §3

A549 (human lung cancer) = assay: as above; format: cell-based; details: Homo sapiens; 72 h, MTT, A549
Experimental: as §1, §2, §3

[3] = test system: MGC 803 (human gastric cancer cell); assay: as above; format: cell-based; details: Homo sapiens
Experimental: as §1, §2, §3

[4] = test system: CaES-17 (esophageal cancer cell); assay: as above; format: cell-based, human; details: Homo sapiens, CaEs17; 72 h, MTT, CAES-17
Experimental: as §1, §2, §3

MG63 (osteosarcoma) = assay: as above; format: cell-based, human; details: Homo sapiens; 72 h, MTT, MG-63
Experimental: as §1, §2, §3

PC-3 (prostate cancer) = assay: as above; format: cell-based, human; details: Homo sapiens; 72 h, MTT, PC-3
Experimental: as §1, §2, §3

[5] = test system: PANC-1 (pancreatic cancer); assay: as above; format: cell-based, human; details: Homo sapiens; 72 h, MTT, PANC-1
Experimental: as §1, §2, §3

[6] = test system: K562/adr (drug-resistant, chronic myeloid leukemia, CML); assay: Leukemia cell growth inhibition, MTT, 72 h (Example 5); format: cell-based, human; details: for IC50 / IC90: Homo sapiens, K562/Adr, 72 h, MTT
Text: (§4) Leukemia cell lines: leukemia cell lines: K562/adr (drug-resistant, chronic myeloid leukemia, CML), NB4 (acute promyelocytic leukemia, AML), Kasumi-1 (acute myeloid leukemia M2 type, AML-M2), Jurkat (acute lymphoblastic leukemia, ALL), all of which are donated by Cancer Research Institute of Zhejiang University, China; and H9 (acute lymphoblastic leukemia, ALL), which is purchased from China Center for Type Culture Collection.
(§5) Reagents: The standard sample of tetrandrine (TTD) is purchased from Ci Yuan Biotechnology Co., Ltd., Shaanxi, China; and the 5-substituted tetrandrine derivatives of the present invention.
(§6) Obtaining 6000 well-growing leukemia cells and inoculating them into wells of a 96-well cell culture plate. The culture medium is a 1640 cell culture medium containing 10% fetal bovine serum. After adding the tetrandrine derivatives of different concentrations and mixing uniformly, placing the plate in a carbon dioxide cell incubator (5% CO2) at 37° C. and incubating for 72 hours. Then the viable cell concentration is determined by the MTT method.

[7] = test system: H9 (acute lymphoblastic leukemia, ALL); assay: as above; format: cell-based, human; details: Homo sapiens; 72 h, MTT
Text: as §4, §5, §6

[8] = test system: Jurkat (acute lymphoblastic leukemia, ALL); assay: as above; format: cell-based, human; details: Homo sapiens, Jurkat; 72 h, MTT
Text: as §4, §5, §6

[9] = test system: Kasumi-1 (acute myeloid leukemia M2 type, AML-M2); assay: as above; format: cell-based, human; details: Homo sapiens, Kasumi 1
Text: as §4, §5, §6

[10] = test system: NB4 (acute promyelocytic leukemia, AML); assay: as above; format: cell-based, human; details: Homo sapiens; 72 h, MTT
Text: as §4, §5, §6

[11] = test system: RPMI8226 (multiple myeloma); assay: Multiple myeloma cell growth inhibition, MTT, 72 h (Example 6); format: cell-based, human; details: for IC50 / IC90: Homo sapiens, RPMI-8226, 72 h, MTT, RPMI8226
Experimental: Multiple myeloma and lymphoma cell lines: RPMI8226 (multiple myeloma), purchased from Fuxiang Bio-tech Co. Ltd., Shanghai, China.
as §2
as §6, with “incubated” for “incubating”

[12] = test system: RKO (human colon adenocarcinoma cell); assay: Solid tumor cell growth inhibition, MTT, 72 h (Example 7); format: cell-based; details: Homo sapiens; 72 h, MTT, RKO
Experimental: as §1, §2, §3

Row | SMILES | IC50 [1] [µg/mL] | IC90 [1] [µg/mL] | IC50 [2] [µg/mL] | IC90 [2] [µg/mL] | IC50 (A549 (human lung cancer)) [µg/mL] | IC90 (A549 (human lung cancer)) [µg/mL] | IC50 [3] [µg/mL] | IC90 [3] [µg/mL] | IC50 [4] [µg/mL] | IC90 [4] [µg/mL] | IC50 (MG63 (osteosarcoma)) [µg/mL] | IC90 (MG63 (osteosarcoma)) [µg/mL] | IC50 [5] [µg/mL] | IC90 [5] [µg/mL] | IC50 [6] [µg/mL] | IC90 [6] [µg/mL] | IC50 [7] [µg/mL] | IC90 [7] [µg/mL] | IC50 [8] [µg/mL] | IC90 [8] [µg/mL] | further results
1 | COc1ccc2cc1Oc1ccc(cc1)C[C@H]1c3cc(c(OC)cc3CCN1C)Oc1c(OC)c(OC)c(CNCc3ccccn3)c3c1[C@H](C2)N(C)CC3 [BS-TE-352] | 3.61 (≈ 4.86 µM) | 4.98 (≈ 6.7 µM) | 1.4 (≈ 1.88 µM) | 4.85 (≈ 6.53 µM) | 1.35 (≈ 1.82 µM) | 4.58 (≈ 6.16 µM) | 4.38 (≈ 5.9 µM) | > 10 | 3.06 (≈ 4.12 µM) | 9.92 (≈ 13.4 µM) | 1.26 (≈ 1.7 µM) | 4.35 (≈ 5.86 µM) | 5.79 (≈ 7.79 µM) | 9 (≈ 12.1 µM) | 0.63 (≈ 0.848 µM) | 3 (≈ 4.04 µM) | 1.31 (≈ 1.76 µM) | 4.5 (≈ 6.06 µM) | 1.38 (≈ 1.86 µM) | 4.74 (≈ 6.38 µM) | IC50 (PC-3 (prostate cancer)): 4.53 µg/mL (≈ 6.1 µM); IC90 (PC-3 (prostate cancer)): 7.51 µg/mL (≈ 10.1 µM); IC50 [9]: 1.1 µg/mL (≈ 1.48 µM); IC90 [9]: 4.84 µg/mL (≈ 6.51 µM); IC50 [10]: 1.05 µg/mL (≈ 1.41 µM); IC90 [10]: 3.88 µg/mL (≈ 5.22 µM); IC50 [11]: 0.09 µg/mL (≈ 0.121 µM); IC90 [11]: 0.76 µg/mL (≈ 1.02 µM)
2 | COc1ccc2cc1Oc1ccc(cc1)C[C@H]1c3cc(c(OC)cc3CCN1C)Oc1c(OC)c(OC)c(CN3CC=CC3)c3c1[C@H](C2)N(C)CC3 [BS-TE-329] | 8.16 (≈ 11.6 µM) | 15.9 (≈ 22.5 µM) | 1.62 (≈ 2.3 µM) | 2.48 (≈ 3.52 µM) | 2.36 (≈ 3.35 µM) | 4.77 (≈ 6.78 µM) | 1.26 (≈ 1.79 µM) | 1.82 (≈ 2.59 µM) | 7.2 (≈ 10.2 µM) | 26.5 (≈ 37.6 µM) | 6.87 (≈ 9.76 µM) | 35.6 (≈ 50.6 µM) | > 10 | > 10 | 0.1 (≈ 0.142 µM) | 1.33 (≈ 1.89 µM) | 1.19 (≈ 1.69 µM) | 2 (≈ 2.84 µM) | 0.91 (≈ 1.29 µM) | 3.31 (≈ 4.7 µM) | anti-K562/adr activity increase over tetrandrine ([6]; compared with tetrandrine): ~4 fold; IC50 [9]: 0.5 µg/mL (≈ 0.71 µM); IC90 [9]: 3.4 µg/mL (≈ 4.83 µM); IC50 [10]: 2.05 µg/mL (≈ 2.91 µM); IC90 [10]: 3.9 µg/mL (≈ 5.54 µM); IC50 [11]: 0.004 µg/mL (≈ 0.00568 µM); IC90 [11]: 0.29 µg/mL (≈ 0.412 µM); anti-RPMI8226 activity increase over tetrandrine ([11]; compared with tetrandrine): ~90 fold
3 | COc1ccc2cc1Oc1ccc(cc1)C[C@H]1c3cc(c(OC)cc3CCN1C)Oc1c(OC)c(OC)c(COCC3CCOC3)c3c1[C@H](C2)N(C)CC3 (some centres unmarked) [BS-TE-417] | 2.48 (≈ 3.37 µM) | 3.76 (≈ 5.1 µM) | 1.77 (≈ 2.4 µM) | 3.79 (≈ 5.14 µM) | 3.88 (≈ 5.27 µM) | 10.1 (≈ 13.7 µM) | 5.09 (≈ 6.91 µM) | 8.27 (≈ 11.2 µM) | 2.04 (≈ 2.77 µM) | 12 (≈ 16.3 µM) | 1.06 (≈ 1.44 µM) | 3.66 (≈ 4.97 µM) | 4.66 (≈ 6.32 µM) | 9.5 (≈ 12.9 µM) | 0.88 (≈ 1.19 µM) | 4.63 (≈ 6.28 µM) | 2.03 (≈ 2.75 µM) | 4.37 (≈ 5.93 µM) | 3.64 (≈ 4.94 µM) | 12.1 (≈ 16.5 µM) | IC50 (PC-3 (prostate cancer)): 4.1 µg/mL (≈ 5.56 µM); IC90 (PC-3 (prostate cancer)): 7.91 µg/mL (≈ 10.7 µM); IC50 [9]: 1.8 µg/mL (≈ 2.44 µM); IC90 [9]: 9.69 µg/mL (≈ 13.1 µM); IC50 [11]: 0.27 µg/mL (≈ 0.366 µM); IC90 [11]: 2 µg/mL (≈ 2.71 µM)
4 | COc1ccc2cc1Oc1ccc(cc1)C[C@H]1c3cc(c(OC)cc3CCN1C)Oc1c(OC)c(OC)c(Cn3cccn3)c3c1[C@H](C2)N(C)CC3 [BS-TE-330] | 2.96 (≈ 4.21 µM) | 4.9 (≈ 6.97 µM) | 6 (≈ 8.54 µM) | 12 (≈ 17.1 µM) | 5.44 (≈ 7.74 µM) | 16 (≈ 22.7 µM) | 1.61 (≈ 2.29 µM) | 6.48 (≈ 9.22 µM) | 2.4 (≈ 3.41 µM) | 7.94 (≈ 11.3 µM) | 1.96 (≈ 2.79 µM) | 4.38 (≈ 6.23 µM) | 6.17 (≈ 8.78 µM) | 9.8 (≈ 13.9 µM) | 0.56 (≈ 0.797 µM) | 2.83 (≈ 4.03 µM) | 2.03 (≈ 2.89 µM) | 4.03 (≈ 5.73 µM) | 2.37 (≈ 3.37 µM) | 5.51 (≈ 7.84 µM) | IC50 [12]: 2.5 µg/mL (≈ 3.56 µM); IC90 [12]: 4.64 µg/mL (≈ 6.6 µM); IC50 (PC-3 (prostate cancer)): 3.68 µg/mL (≈ 5.24 µM); IC90 (PC-3 (prostate cancer)): 7.59 µg/mL (≈ 10.8 µM); IC50 [9]: 1.45 µg/mL (≈ 2.06 µM); IC90 [9]: 6.95 µg/mL (≈ 9.89 µM); IC50 [11]: 0.18 µg/mL (≈ 0.256 µM); IC90 [11]: 1.22 µg/mL (≈ 1.74 µM)
